Data set [1] deals with Rv1026 protein from Mycobacterium tuberculosis H37Rv (Mycobacterium tuberculosis H37Rv). Briefly: SEC + other: dynamic light scattering.
For data set [2], the target named is T1, E. coli PPX (EC-PPX) (Escherichia coli, UniProt P0AFL6).
T1 construct: predicted 53 kDa; dimer
T1 sequence (P0AFL6 2-513): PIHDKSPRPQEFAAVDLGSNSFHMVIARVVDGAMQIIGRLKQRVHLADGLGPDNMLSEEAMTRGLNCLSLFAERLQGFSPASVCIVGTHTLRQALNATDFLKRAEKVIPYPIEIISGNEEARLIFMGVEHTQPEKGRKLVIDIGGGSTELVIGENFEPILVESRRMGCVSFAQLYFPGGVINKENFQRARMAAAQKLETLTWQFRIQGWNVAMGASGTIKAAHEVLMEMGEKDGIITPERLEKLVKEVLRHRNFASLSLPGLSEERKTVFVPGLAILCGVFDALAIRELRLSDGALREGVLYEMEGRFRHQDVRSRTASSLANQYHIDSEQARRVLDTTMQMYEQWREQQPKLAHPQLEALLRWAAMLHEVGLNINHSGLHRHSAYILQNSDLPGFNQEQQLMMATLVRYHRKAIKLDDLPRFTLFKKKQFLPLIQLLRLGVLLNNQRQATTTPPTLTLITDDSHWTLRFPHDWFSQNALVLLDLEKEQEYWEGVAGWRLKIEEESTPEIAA
Briefly: inhibition of poly-P130 hydrolysis, EnzChek phosphate release. Type of data set: biochemical. Conditions: poly-P130 125 µM, 1 mM MnCl2, 25 mM KCl, 50 mM HEPES pH 6.8, 37°C. From the text: inhibition of poly-P130 hydrolysis, EnzChek phosphate release on E. coli PPX (EC-PPX)

For data set [3], the target named is T2, E. coli GPP (EC-GPP, GppA) (Escherichia coli, UniProt P25552).
T2 construct: predicted 51 kDa; dimer
T2 sequence (P25552 1-494): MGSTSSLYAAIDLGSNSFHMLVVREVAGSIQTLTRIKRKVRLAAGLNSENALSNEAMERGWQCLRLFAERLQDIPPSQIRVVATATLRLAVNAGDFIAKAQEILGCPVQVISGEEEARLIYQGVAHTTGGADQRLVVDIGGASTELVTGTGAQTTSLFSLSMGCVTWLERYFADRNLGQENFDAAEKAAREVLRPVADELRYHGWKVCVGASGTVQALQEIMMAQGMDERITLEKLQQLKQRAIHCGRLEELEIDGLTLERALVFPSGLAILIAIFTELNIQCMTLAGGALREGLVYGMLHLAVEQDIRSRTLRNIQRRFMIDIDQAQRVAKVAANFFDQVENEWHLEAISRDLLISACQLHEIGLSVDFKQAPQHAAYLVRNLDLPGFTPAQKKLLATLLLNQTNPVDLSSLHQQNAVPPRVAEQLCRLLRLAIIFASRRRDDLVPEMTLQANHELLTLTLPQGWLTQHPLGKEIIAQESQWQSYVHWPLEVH
The data set is described as above. In kind it is biochemical. The following applies: poly-P130 125 µM, 1 mM MnCl2, 25 mM KCl, 50 mM HEPES pH 6.8, 37°C. The source says:
inhibition of poly-P130 hydrolysis, EnzChek phosphate release on E. coli GPP (EC-GPP, GppA)

In data set [4] the target is T2, E. coli GPP (EC-GPP, GppA). The data set can be described thus: GTP hydrolysis, anion exchange chromatography. In kind it is biochemical. Conditions: 1 mM GTP, 1 mM MnCl2, 4 mM (NH4)2SO4, 50 mM Tris-HCl pH 7.4, 37°C.
Data set [5] concerns the molecule itself. The data set can be described thus: SEC + other: dynamic light scattering.
Data set [6] deals with the molecule itself. Briefly: SEC + other: dynamic light scattering; Superdex 200 gel filtration calibrated with protein standards; light scattering of 2, 1 and 0.5 mg/ml protein in 25 mM Tris-HCl pH 7.4, 25 mM NaCl (DynaPro Plate Reader Plus); self-association, dimer.

The stoichiometry N is a count of units in the complex or per binding partner. Take “Rv1026 protein from Mycobacterium tuberculosis H37Rv (enzyme)”: the stoichiometry N in data set [1] was found to be 2.
As to `Nc1nc2c(ncn2[C@@H]2O[C@H](COP(=O)(O)OP(=O)(O)OP(=O)(O)O)[C@@H](OP(=O)(O)OP(=O)(O)O)[C@H]2O)c(=O)[nH]1` [pppGpp, guanosine 5′-triphosphate, 3′-diphosphate], the “Exopolyphosphatase activities / +1 mM pppGpp / (% decrease) / ATPase activities” value in data set [2] came to 89.6±20.1%; in data set [3], 29.5±4.4%.
Take `Nc1nc2c(ncn2[C@@H]2O[C@H](COP(=O)(O)OP(=O)(O)O)[C@@H](OP(=O)(O)OP(=O)(O)O)[C@H]2O)c(=O)[nH]1` [ppGpp, guanosine 3′,5′-bisdiphosphate]: the results for the “Exopolyphosphatase activities / +1 mM ppGpp / (% decrease) / ATPase activities” value in data set [2] and in data set [3] were 10.8±1.2% and 6.0±0.5%, respectively.
In the case of `Nc1nc2c(ncn2[C@@H]2O[C@H](COP(=O)(O)OP(=O)(O)OP(=O)(O)O)[C@@H](O)[C@H]2O)c(=O)[nH]1` [GTP], the “GTP hydrolysis, anion exchange chromatography” value in data set [4] was “the E. coli GPP protein was a highly efficient GTPase and a modest ATPase”.

B1: Rv0496 (MTB-PPX1) protein from Mycobacterium tuberculosis H37Rv (enzyme)
chain: MRLGVLDVGSNTVHLLVVDAHRGGHPTPMSSTKATLRLAEATDSSGKITKRGADKLISTIDEFAKIAISSGCAELMAFATSAVRDAENSEDVLSRVRKETGVELQALRGEDESRLTFLAVRRWYGWSAGRILNLDIGGGSLEVSSGVDEEPEIALSLPLGAGRLTREWLPDDPPGRRRVAMLRDWLDAELAEPSVTVLEAGSPDLAVATSKTFRSLARLTGAAPSMAGPRVKRTLTANGLRQLIAFISRMTAVDRAELEGVSADRAPQIVAGALVAEASMRALSIEAVEICPWALREGLILRKLDSEADGTALIESSSVHTSVRAVGGQPADRNAANRSRGSKP
As to B1, the “stoichiometry N” value in data set [5] worked out at 2.

B2: E. coli guanosine pentaphosphate 5'-phosphohydrolase (GPP, GppA) (enzyme, E. coli BL21 (DE3), UniProt P25552 1-494, looked up)
chain: T2 sequence (P25552 1-494)
notes: also called EC-GPP; E. coli GPP; source: E. coli BL21(DE3), purified (HiTrap Chelating HP, eluted with 60 mM imidazole)
As for B2, the “stoichiometry N” value in data set [6] worked out at 2.

B3: E. coli exopolyphosphatase (PPX) (enzyme, E. coli BL21 (DE3), UniProt P0AFL6 1-513, looked up)
chain: MPIHDKSPRPQEFAAVDLGSNSFHMVIARVVDGAMQIIGRLKQRVHLADGLGPDNMLSEEAMTRGLNCLSLFAERLQGFSPASVCIVGTHTLRQALNATDFLKRAEKVIPYPIEIISGNEEARLIFMGVEHTQPEKGRKLVIDIGGGSTELVIGENFEPILVESRRMGCVSFAQLYFPGGVINKENFQRARMAAAQKLETLTWQFRIQGWNVAMGASGTIKAAHEVLMEMGEKDGIITPERLEKLVKEVLRHRNFASLSLPGLSEERKTVFVPGLAILCGVFDALAIRELRLSDGALREGVLYEMEGRFRHQDVRSRTASSLANQYHIDSEQARRVLDTTMQMYEQWREQQPKLAHPQLEALLRWAAMLHEVGLNINHSGLHRHSAYILQNSDLPGFNQEQQLMMATLVRYHRKAIKLDDLPRFTLFKKKQFLPLIQLLRLGVLLNNQRQATTTPPTLTLITDDSHWTLRFPHDWFSQNALVLLDLEKEQEYWEGVAGWRLKIEEESTPEIAA
notes: also called EC-PPX; E. coli PPX; source: E. coli BL21(DE3), purified (HiTrap Chelating HP, eluted with 60 mM imidazole)
In the case of B3, the “stoichiometry N” value in data set [6] turned out to be 2.

Source of the values: paper PMC3411833, “The Two PPX-GppA Homologues from Mycobacterium tuberculosis Have Distinct Biochemical Activities” (PLoS ONE, 2012).
